ChEMBL document CHEMBL1140598, “A review of anti-infective and anti-inflammatory chalcones” (Eur J Med Chem, 2007)

Assay: Inhibition of LPS-stimulated nitric oxide formation in mouse microglial cells
Type: functional, cell-based

CCCCOc1ccc(OCCCC)c(C(=O)/C=C/c2ccc(Cl)cc2)c1
IC50: 700 nM
